According to patent publication US20150105252A1, “SUBSTITUTED PYRAZOLES AS HERBICIDES” (E I DU PONT DE NEMOURS AND COMPANY, priority 2013, published 2015):

How the values were obtained:
[1] = test system: foxtail, giant; experiment: Test A postemergence; assay type: in vivo, Setaria faberii
Outline: (§1)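 Growth medium: loam soil blended with sand. Preemergence treatment used a directed soil spray right after planting; postemergence treatment targeted seedlings at one to two leaves (2–10 cm height). Response was judged by eye relative to untreated plants about 10 days later on a 0–100 control scale.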

[2] = test system: velvetleaf; experiment: Test A postemergence; assay type: in vivo, Abutilon theophrasti
Outline: as §1

[3] = test system: corn; experiment: Test A postemergence; assay type: in vivo, Zea mays
Outline: as §1

[4] = test system: crabgrass, large; experiment: Test A postemergence; assay type: in vivo, Digitaria sanguinalis
Outline: as §1

[5] = test system: corn; experiment: Test A preemergence; assay type: in vivo, Zea mays; conditions: for Corn plant response rating (0 to 100 scale): visual injury approx. 10 days after treatment
Outline: as §1

[6] = test system: wheat; experiment: Test A postemergence; assay type: in vivo, Triticum aestivum
Outline: as §1

[7] = test system: morningglory; experiment: Test A preemergence; assay type: in vivo, Ipomoea spp.; conditions: for Morningglory plant response rating (0 to 100 scale): visual injury approx. 10 days after treatment
Outline: as §1

[8] = test system: crabgrass, large; experiment: Test A preemergence; assay type: in vivo, Digitaria sanguinalis; conditions: for Crabgrass, Large plant response rating (0 to 100 scale): visual injury approx. 10 days after treatment
Outline: as §1

[9] = test system: pigweed; experiment: Test A preemergence; assay type: in vivo, Amaranthus retroflexus; conditions: for Pigweed plant response rating (0 to 100 scale): visual injury approx. 10 days after treatment
Outline: as §1

[10] = test system: barnyardgrass; experiment: Test B flood; assay type: in vivo, Echinochloa crus-galli; conditions: 250 g ai/ha, visual rating on 0 to 100 scale (0 no effect, 100 complete control), 13 to 15 days
Outline: (§2)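 Two-leaf-stage plants, pots flooded (3 cm above soil) and treated through the water, which stayed at that depth. After 13–15 days in greenhouse conditions, visual assessment versus controls: 0 is no effect, 100 complete control, dash means no result.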

[11] = test system: morningglory; experiment: Test A postemergence; assay type: in vivo, Ipomoea spp.
Outline: as §1

[12] = test system: pigweed; experiment: Test A postemergence; assay type: in vivo, Amaranthus retroflexus
Outline: as §1

[13] = test system: barnyardgrass; experiment: Test A postemergence; assay type: in vivo, Echinochloa crus-galli
Outline: as §1

[14] = test system: barnyardgrass; experiment: Test A preemergence; assay type: in vivo, Echinochloa crus-galli; conditions: for Barnyardgrass plant response rating (0 to 100 scale, 0 is no effect, 100 is complete control): visual injury approx. 10 days after treatment
Outline: as §1

[15] = test system: foxtail, giant; experiment: Test A preemergence; assay type: in vivo, Setaria faberii; conditions: for Foxtail, Giant plant response rating (0 to 100 scale): visual injury approx. 10 days after treatment
Outline: as §1

[16] = test system: sedge, umbrella; experiment: Test B flood; assay type: in vivo, Cyperus difformis; conditions: 250 g ai/ha, visual rating on 0 to 100 scale (0 no effect, 100 complete control), 13 to 15 days
Outline: as §2

[17] = test system: rice; experiment: Test B flood; assay type: in vivo, Oryza sativa; conditions: 250 g ai/ha, visual rating on 0 to 100 scale (0 no effect, 100 complete control), 13 to 15 days
Outline: as §2

[18] = test system: wheat; experiment: Test A preemergence; assay type: in vivo, Triticum aestivum; conditions: preemergence; for Wheat plant response rating (0 to 100 scale): visual injury approx. 10 days after treatment
Outline: as §1

[19] = test system: ducksalad; experiment: Test B flood; assay type: in vivo, Heteranthera limosa; conditions: 250 g ai/ha, visual rating on 0 to 100 scale (0 no effect, 100 complete control), 13 to 15 days
Outline: as §2

[20] = test system: velvetleaf; experiment: Test A preemergence; assay type: in vivo, Abutilon theophrasti; conditions: for Velvetleaf plant response rating (0 to 100 scale): visual injury approx. 10 days after treatment
Outline: as §1

[21] = Postemergence, 500 g ai/ha, 0 to 100 scale (0 no effect, 100 complete control)
[22] = postemergence, 125 g ai/ha, about 10 days, visual rating on 0 to 100 scale (0 no effect, 100 complete control)
[23] = preemergence, 500 g ai/ha, visual injury after approx. 10 days, 0 to 100 scale (0 no effect, 100 complete control)
[24] = 500 g ai/ha, visual injury after approx. 10 days, 0 to 100 scale (0 no effect, 100 complete control)
[25] = Postemergence, 500 g ai/ha, visual rating after approx. 10 days, 0 to 100 scale (0 no effect, 100 complete control)
[26] = Preemergence, 500 g ai/ha, 0 to 100 scale, 0 no effect, 100 complete control
[27] = preemergence, 125 g ai/ha, visual injury, 0 to 100 scale, approx. 10 days
[28] = Postemergence, 125 g ai/ha, 0 to 100 scale, 0 no effect, 100 complete control

CCCCNC(=O)c1cc(I)n(Cc2cccc(C(F)(F)F)c2)n1 [Compound 182]
50: Foxtail, Giant plant response rating [15, 23]
60: Crabgrass, Large plant response rating [8, 23]
20: Foxtail, Giant plant response rating [1, 21] | Corn plant response rating [3, 21] | Barnyardgrass plant response rating [13, 22]
70: Velvetleaf plant response rating [2, 21]
10: Crabgrass, Large plant response rating [4, 22]
30: Crabgrass, Large plant response rating [4, 21] | Pigweed plant response rating [9, 23] | Morningglory plant response rating [11, 21] | Barnyardgrass plant response rating [13, 21]
0: Foxtail, Giant plant response rating [1, 22] | Corn plant response rating [3, 22] | Corn plant response rating (0 to 100 scale) ([5]; preemergence, 125 g ai/ha) | Corn plant response rating [5, 23] | Wheat plant response rating [6, 21] | Morningglory plant response rating (0 to 100 scale) ([7]; preemergence, 125 g ai/ha) | Morningglory plant response rating [7, 23] | Crabgrass, Large plant response rating (0 to 100 scale) ([8]; preemergence, 125 g ai/ha) | Pigweed plant response rating (0 to 100 scale) ([9]; preemergence, 125 g ai/ha) | Plant response rating, Barnyardgrass [10] | Barnyardgrass plant response rating (0 to 100 scale, 0 is no effect, 100 is complete control) ([14]; preemergence, 125 g ai/ha) | Barnyardgrass plant response rating [14, 23] | Foxtail, Giant plant response rating (0 to 100 scale) ([15]; preemergence, 125 g ai/ha) | Plant response rating, Sedge, Umbrella [16] | Plant response rating, Rice [17] | Wheat plant response rating (0 to 100 scale) ([18]; 125 g ai/ha) | Wheat plant response rating [18, 24] | Plant response rating, Ducksalad [19] | Velvetleaf plant response rating (0 to 100 scale) ([20]; preemergence, 125 g ai/ha) | Velvetleaf plant response rating [20, 23]
90: Pigweed plant response rating [12, 21]

CCCNC(=O)c1cc(CC)n(Oc2ccnc(C(F)(F)F)c2)n1 [Compound 82]
0: Wheat plant response rating [6, 22] | Pigweed plant response rating [9, 27] | Plant response rating, Barnyardgrass [10] | Plant response rating, Rice [17] | Velvetleaf plant response rating [20, 27]
75: Plant response rating, Sedge, Umbrella [16]
70: Crabgrass, Large plant response rating [8, 27]
60: Foxtail, Giant plant response rating [1, 25] | Corn plant response rating [3, 25] | Crabgrass, Large plant response rating [4, 25] | Corn plant response rating [5, 26] | Pigweed plant response rating [9, 26] | Morningglory plant response rating [11, 25] | Wheat plant response rating [18, 24]
100: Crabgrass, Large plant response rating [8, 26] | Foxtail, Giant plant response rating [15, 26]
50: Wheat plant response rating [6, 25] | Morningglory plant response rating [7, 26] | Morningglory plant response rating [11, 22] | Barnyardgrass plant response rating [13, 25]
10: Foxtail, Giant plant response rating [1, 22] | Velvetleaf plant response rating [2, 22] | Morningglory plant response rating [7, 27] | Pigweed plant response rating [12, 22] | Wheat plant response rating ([18]; 125 g ai/ha, visual injury, 0 to 100 scale, approx. 10 days)
40: Foxtail, Giant plant response rating [15, 27]
20: Velvetleaf plant response rating [2, 25] | Corn plant response rating [3, 22] | Corn plant response rating [5, 27] | Barnyardgrass plant response rating [13, 28] | Velvetleaf plant response rating [20, 26]
30: Crabgrass, Large plant response rating [4, 22] | Pigweed plant response rating [12, 25] | Barnyardgrass plant response rating [14, 27] | Plant response rating, Ducksalad [19]
80: Barnyardgrass plant response rating [14, 26]

COCc1cc(C(=O)NCC(F)(F)F)nn1Cc1cc(C(F)(F)C(F)(F)F)nn1C [Compound 225]
60: Foxtail, Giant plant response rating [1, 21] | Morningglory plant response rating [11, 21]
80: Barnyardgrass plant response rating [14, 23]
90: Crabgrass, Large plant response rating [8, 23]
40: Crabgrass, Large plant response rating [4, 28]
70: Crabgrass, Large plant response rating [4, 21] | Foxtail, Giant plant response rating [15, 23]
55: Plant response rating, Ducksalad [19]
0: Corn plant response rating (0 to 100 scale) ([5]; preemergence, 125 g ai/ha) | Wheat plant response rating [6, 28] | Wheat plant response rating [6, 21] | Plant response rating, Barnyardgrass [10] | Pigweed plant response rating [12, 28] | Pigweed plant response rating [12, 21] | Plant response rating, Rice [17] | Wheat plant response rating (0 to 100 scale) ([18]; 125 g ai/ha) | Velvetleaf plant response rating (0 to 100 scale) ([20]; preemergence, 125 g ai/ha)
30: Velvetleaf plant response rating [2, 21] | Corn plant response rating [3, 21] | Morningglory plant response rating (0 to 100 scale) ([7]; preemergence, 125 g ai/ha) | Barnyardgrass plant response rating [13, 21]
20: Velvetleaf plant response rating [2, 28] | Corn plant response rating [5, 23] | Crabgrass, Large plant response rating (0 to 100 scale) ([8]; preemergence, 125 g ai/ha) | Pigweed plant response rating (0 to 100 scale) ([9]; preemergence, 125 g ai/ha) | Foxtail, Giant plant response rating (0 to 100 scale) ([15]; preemergence, 125 g ai/ha)
10: Foxtail, Giant plant response rating [1, 28] | Corn plant response rating [3, 28] | Morningglory plant response rating [11, 28] | Barnyardgrass plant response rating [13, 28] | Barnyardgrass plant response rating (0 to 100 scale, 0 is no effect, 100 is complete control) ([14]; preemergence, 125 g ai/ha)
50: Plant response rating, Sedge, Umbrella [16]

CCCCc1cc(C(=O)NOCC)nn1Cc1ccnc(C(F)(F)F)c1 [Compound 152]
100: Pigweed plant response rating (0 to 100 scale) ([9]; preemergence, 125 g ai/ha) | Pigweed plant response rating [9, 23]
20: Velvetleaf plant response rating [2, 22] | Morningglory plant response rating [7, 23] | Velvetleaf plant response rating [20, 23]
50: Barnyardgrass plant response rating [13, 21]
10: Foxtail, Giant plant response rating [1, 22] | Corn plant response rating [3, 22] | Crabgrass, Large plant response rating [4, 22] | Barnyardgrass plant response rating [13, 22] | Foxtail, Giant plant response rating (0 to 100 scale) ([15]; preemergence, 125 g ai/ha)
60: Velvetleaf plant response rating [2, 21] | Crabgrass, Large plant response rating [4, 21] | Morningglory plant response rating [11, 21] | Pigweed plant response rating [12, 22] | Barnyardgrass plant response rating [14, 23] | Foxtail, Giant plant response rating [15, 23]
30: Corn plant response rating [3, 21]
80: Crabgrass, Large plant response rating [8, 23] | Pigweed plant response rating [12, 21]
0: Corn plant response rating (0 to 100 scale) ([5]; preemergence, 125 g ai/ha) | Corn plant response rating [5, 23] | Wheat plant response rating [6, 21] | Wheat plant response rating [6, 22] | Morningglory plant response rating (0 to 100 scale) ([7]; preemergence, 125 g ai/ha) | Plant response rating, Barnyardgrass [10] | Barnyardgrass plant response rating [14, 27] | Plant response rating, Sedge, Umbrella [16] | Plant response rating, Rice [17] | Wheat plant response rating (0 to 100 scale) ([18]; 125 g ai/ha) | Wheat plant response rating [18, 24] | Plant response rating, Ducksalad [19] | Velvetleaf plant response rating (0 to 100 scale) ([20]; preemergence, 125 g ai/ha)
40: Foxtail, Giant plant response rating [1, 21] | Crabgrass, Large plant response rating (0 to 100 scale) ([8]; preemergence, 125 g ai/ha) | Morningglory plant response rating [11, 22]
